This assay relates to P. yoelii parasites in erythrocytes. In words: Selenomethionine prodrug, 24 hour culture of parasitized blood, damaged parasites by flow cytometry. Format: cell-based. As for the experimental part:
Blood was harvested and pooled from three mice infected with the murine Plasmodium parasite P. yoelii. Pooled blood parasitemia was 4.0%. Erythrocytes were extracted from the blood and washed to remove debris. The cells were then incubated with excess mCGL-AV for 3 hours. After incubation, the cells were then washed to remove excess protein and debris. Samples were then incubated under an oxygen reduced atmosphere mimicking the conditions of blood within the body for 24 hours with varying concentrations of selenomethionine. Damaged parasites were enumerated via flow cytometry. The number of damaged parasites is expressed as a percentage of the total number of parasites. Error bars represent the standard error of n=3 repeats of the assay for the same pooled blood.
To insure that healthy red blood cells were not damaged by such high concentrations of mCGL-AV, samples of treated and untreated blood were imaged using light microscopy to search for signs of hemolysis.

With `C[Se]CC[C@H](N)C(=O)O` [selenomethionine], the “impact on parasite viability, selenomethionine by itself” value (24 hours of culture, varying concentrations of selenomethionine, no fusion protein) is “no significant impact on parasite viability”. Further, the “damaged parasites with selenomethionine plus mCGL-AV” value (excess mCGL-AV 3 hours, wash, then 24 hours with varying concentrations of selenomethionine) is listed as “boosted the cytotoxicity of the fusion protein”.

(Values after patent US11446365B2, “Antimalarial enzyme conjugates, kits containing same, and methods of producing and using same” (priority 2017, dated 2022).)
